Measured values from patent US20160046616A1, “NRF2 SMALL MOLECULE INHIBITORS FOR CANCER THERAPY” (THE JOHNS HOPKINS UNIVERSITY, priority 2013, published 2016).
Entries after “also recorded” stand apart in the source; their conditions may differ.

Key:
[1] = test system: H1437 NRF2-ARE-Fluc stable cell line; assay: H1437 Nrf2 assay: NRF2-ARE firefly luciferase reporter gene assay; type: cell-based; details: Homo sapiens, NCI-H1437, H1437 NRF2-ARE-Fluc stable cell line; read-out: Potency of inhibition, H1437
[2] = test system: mRNA expression of Nrf2 and its downstream target genes, GCLm and NQO1, A549 cells; assay: Real time RT-PCR of Nrf2 and downstream target genes in A549 cells; type: cell-based; details: for Nrf2 (and GCLm, NQO1) expression, real time PCR based validation / NRF2 signaling, fold change in mRNA by real time RT-PCR: A549 cells; for NRF2 signaling, fold change in mRNA by real time RT-PCR: 48 h (compounds 1, 3), 72 h (compound 4)
Protocol: […] The mRNA expression of Nrf2 and its downstream target genes, GCLm and NQO1 was measured by RT-PCR. (NC means no significant change in gene expression in comparison with vehicle group; M represents the concentration of drug used in the gene expression studies and it is twice the IC50 values generated from primary screening with A549-ARE reporter cell lines).

[3] = test system: mRNA expression of Nrf2 and its downstream target genes, GCLm and NQO1, H1437 cells; assay: Real time RT-PCR of Nrf2 and downstream target genes in H1437 cells; type: cell-based
Protocol: For the real time reverse transcription polymerase chain reaction (RT-PCR) assay, cells were treated with Nrf2 inhibitors for 36-48 hrs, followed by total RNA isolation. The mRNA expression of Nrf2 and its downstream target genes, GCLm and NQO1 was measured by RT-PCR. (NC means no significant change in gene expression in comparison with vehicle group; M represents the concentration of drug used in the gene expression studies and it is twice the IC50 values generated from primary screening with A549-ARE reporter cell lines).

[4] = test system: H460 lung cancer cells; assay: Clonogenic assay in H460 lung cancer cells; type: cell-based; details: for Cytotoxicity of chemotherapeutic drugs in combination with the compound, clonogenic assay: H460 cells, combination with chemotherapeutic drug
Protocol: (§1) (A) H460, a NSCLC with a point mutation in KEAP1, is more sensitive to compound 4 than H460-KEAP1 Knock-in H460 cells expressing WT KEAP1. The cells were incubated with the inhibitor for 48 h. Colonies were stained with crystal violet staining and manually counted. (B-C) A549 and H460 cells were treated with different concentrations of paclitaxel, doxorubicin and carboplatin singly or in combination with compound 4 for 72 h. At the end of treatment, regular growth media was added and cells were further incubated for 8-10 days and stained with crystal violet. […] Cells treated with Chemo drug alone or a combination of compound 4 and chemo drug were incubated with luminogenic caspase substrate and change in luminescence was measured. Caspase activity was normalized to the number of viable cells using CellTiter-Blue assay.
For the clonogenic assays, 1,000 cells/well were plated in a 6-well plate. The next day, the cells were treated with vehicle (DMSO), Nrf2 inhibitor, a chemotherapeutic drug, or a combination of Nrf2 and chemotherapeutic drugs for 48 hrs. The drug containing media was then replaced with regular growth media and the cells were incubated for an additional 10 days. At the end of incubation period, the colonies were stained with Crystal Violet and imaged.

[5] = test system: Caspase 3/7 activity, H460 cells; assay: Caspase 3/7 activity in H460 cells; type: cell-based; details: combination of compound and chemo drug
Protocol: as §1

[6] = test system: orthotopic lung tumor model (large cell model); assay: Orthotopic lung tumor model (large cell model); type: in vivo, Mice; details: two weeks post-treatment; single agent and combination with carboplatin
Excerpt: For each group, pretreatment available lung volume was defined as 100% and compared with post-treatment lung volumes.

[7] = test system: orthotopic lung tumor model; assay: Orthotopic lung tumor model, NSCLC xenograft; type: in vivo, Mice; details: three weeks post-treatment; single agent and combination with carboplatin
Protocol: A549 cells were injected in the flanks of athymic nude mice and once tumor volume reached 50-100 mm^3, treatment was initiated. Vehicle, carboplatin (5 mg/kg daily Monday to Friday), compound 4 (30 mg/kg daily Monday to Friday) or a combination of compound 4 and carboplatin was administered for three weeks. Values represent tumor volume ±s.e.m. for all groups (A). […] Tumors were excised and weight at the end of treatment period. […] For each group, pretreatment available lung volume was defined as 100% and compared with post-treatment lung volumes. Mice in the vehicle treated group died at 3 weeks;

[8] = test system: Ewing sarcoma cells (A4573); assay: Soft agar colony assay in Ewing sarcoma cells; type: cell-based; details: 72 h
Protocol: (A) Ewing sarcoma cells (A4573) cells were on soft agar and treated with doxorubicin (2 nM) singly or in combination with compound 4 (10 μM) for 72 h. At the end of treatment, regular growth media was added and cells were further incubated for 8-10 days and colonies were stained with crystal violet and counted. (B) Rhabdomyosarcoma cells (Rh30) cells were on soft agar and treated with doxorubicin (2 nM) and etoposide (5-nM) singly or in combination with compound 4 (10 μM) for 72 h. At the end of treatment, regular growth media was added and cells were further incubated for 8-10 days and colonies were stained with crystal violet and counted;

Row | Structure (SMILES) | IC50 [1] [µM] | NQO1 and GCLm expression, real time PCR ([2]; A549 and H1437 cells) | Nrf2 (and GCLm, NQO1) expression, real time PCR based validation [2] | NRF2 signaling, fold change in mRNA by real time RT-PCR [2] | Nrf2 (and GCLm, NQO1) expression, real time PCR based validation [3] | Cytotoxicity of chemotherapeutic drugs in combination with the compound, clonogenic assay [4] | Caspase 3/7 activity [5] | Tumor free lung volume, orthotopic lung tumor model [6] | Tumor free lung volume, orthotopic lung tumor model [7] | Colony growth of A4573 cells on soft agar, combination ([8]; 10 μM with doxorubicin (2 nM)) | Colony growth of A4573 cells on soft agar, single agent ([8]; 10 μM) | NRF2 and its target genes, time course ([2]; 5 μM) | Selective toxicity: H460 (KEAP1 point mutation) versus H460-KEAP1 Knock-in cells expressing WT KEAP1 ([4]; 48 h, colonies counted) | Nrf2, GCLm, and NQO1 gene expression, real time PCR based validation assay ([2]; cell line not given)
1 | CC1(C)CC2CC(C)(CN2S(=O)(=O)c2ccc(C(=O)Nc3ccc(Cl)c(S(=O)(=O)N4CCOCC4)c3)cc2)C1 (stereo not drawn) [compound 3] | < 5 | Inhibition of NQO1 expression as well as some inhibition of GCLm expression | inhibit Nrf2 expression | inhibit NRF2 signaling | inhibit Nrf2 expression | enhance the cytotoxicity of standard care chemotherapeutic drugs | – | – | – | – | – | – | – | –
2 | Cc1ccccc1C(=O)N1CCc2cc(-c3nc(NC(=O)Cc4ccc5c(c4)OCO5)sc3C)ccc21 [compound 4] | < 5 | – | significant reduction in Nrf2, GCLm, and NQO1 expression | inhibits NRF2 signaling | significant reduction in Nrf2, GCLm, and NQO1 expression | enhance the cytotoxicity of the chemotherapeutic drug paclitaxel; also recorded: potentiates the toxicity of standard care chemotherapy drugs | increased Caspase 3/7 activity | shows anti-tumor efficacy as a single agent and in combination with carboplatin | shows anti-tumor efficacy as a single agent and in combination with carboplatin | potentiates the cytotoxicity of standard care chemotherapy drugs | significant growth inhibitory activity as single agent | Time dependent reduction in NRF2 and its target genes | selectively toxic to cells with KEAP1 mutations | –
3 | O=C(Nc1ncc(Cc2ccc(C(F)(F)F)cc2)s1)c1ccc(-c2cccc([N+](=O)[O-])c2)o1 [Compound 1] | < 5 | – | – | inhibit NRF2 signaling | – | – | – | – | – | – | – | – | – | decrease in Nrf2, GCLm, and NQO1 gene expression
